Test system: tandem Na+ and c-di-AMP riboswitch (DUF1646_cdA_WT transcript) (RNA, riboswitch) AUUUAUAAGGUUACUUUCGGUUGGAAUGGUUAUUACCAUUUUCAAGAGAAGCGGGCUCUGGGGUGGGAGGCUACCAAAUAUUGGUAUAGCUAUCCACCUUUAUUUAUUUUUUUUAAGACAACAACUGAAUAUAUUUAUACGCUGAAUCCGUUAGGAACGGGAGACCCAAAUAAUAGGGGUGAAUCCAAAGCGGUUGCUUUGGUAGGGUUAAGCUCUUUCGACCCGAAUCCGUCAGCUAAUCUCGUAAGCGGUGGAAGAGAAGGUGAUUGAUAUGCUUAAUUACACCUUUAGUUAAGGUAUAUAUUUUAGCAUACGCUGCAGAUACUUCUCUGCAGCUUUUUGUUUUAUAUACCACAAAUGUUGAGGAUGACAAUCUUCAAUGAGAAUCUGAAGGAGGAAUUAAAUAAUAUGGGAUCCAAAGGA
Experiment: in vitro single-round transcription termination
Settings: K+ 100 mM, Mg2+ 4 mM; 40 mM Tris-HCl pH 7.5, 37 °C; E. coli RNA polymerase; functional co-transcriptional response, no constant

Nc1ncnc2c1ncn2[C@@H]1O[C@@H]2COP(=O)(O)O[C@H]3[C@@H](O)[C@H](n4cnc5c(N)ncnc54)O[C@@H]3COP(=O)(O)O[C@H]2[C@H]1O was tested, and the binding was “yes”.

Source: article PMC9337991 (2022)
